Source: the OligoGym collection
After the bases stand the sugars from the 5' end (letter, count) and the backbone: PS all phosphorothioate, else s phosphorothioate and o phosphodiester by linkage. Methylation of C is not given here. e = 2'-O-(2-methoxyethyl) (MOE); k = constrained ethyl (cEt); d = 2'-deoxy (DNA); m = 2'-O-methyl

Target: HSD17B13
Settings: ASO, HepaRG

| Sequence | target mRNA inhibition (1 µM) [%] | also measured |
| --- | --- | --- |
| GAAAAGATGTACACTG (sugars k3 d10 k3, PS) | 56 | – |
| GAAAAGCCTGACTCAC (sugars k3 d10 k3, PS) | 48 | – |
| GAAATCTTGTGTAACT (sugars k3 d10 k3, PS) | 69 | target mRNA inhibition (0.02 µM): 0%; target mRNA inhibition (0.078 µM): 4%; target mRNA inhibition (0.313 µM): 37%; target mRNA inhibition (1.25 µM): 71%; target mRNA inhibition (5 µM): 87% |
| GAAATTGATACACCAA (sugars kkdddddddddkekek, PS) | 68 | – |
| GAAAUTGATACACCAA (sugars k3 d1 m1 d8 k3, PS) | 58 | – |
| GAACAATATGGGATGA (sugars kkdddddddddkekek, PS) | 49 | – |
| GAACACTGTCATAAAG (sugars k3 d10 k3, PS) | 43 | – |
| GAACCAATATGCTCTG (sugars k3 d10 k3, PS) | 61 | – |
| GAACCGTATTCCCAAC (sugars k3 d10 k3, PS) | 72 | – |
| GAACCTATGTGTGCAC (sugars k3 d10 k3, PS) | 53 | – |
| GAAGGATTTCTAGGAT (sugars k3 d10 k3, PS) | 71 | target mRNA inhibition (0.02 µM): 0%; target mRNA inhibition (0.078 µM): 0%; target mRNA inhibition (0.313 µM): 24%; target mRNA inhibition (1.25 µM): 61%; target mRNA inhibition (5 µM): 88% |
| GAAGTTAGTATAGTTA (sugars k3 d9 k3 e1, PS) | 75 | – |
| GAAGTTAGTATAGTTA (sugars k3 d10 k3, PS) | 59 | – |
| GAAGTTCTGATGTCAG (sugars k3 d10 k3, PS) | 0 | – |
| GAATAGCCATGTAGCT (sugars k3 d10 k3, PS) | 21 | – |
| GAATATATACTAGGAT (sugars k3 d10 k3, PS) | 5 | – |
| GAATCCAGATCTGCCC (sugars k3 d10 k3, PS) | 29 | – |
| GAATCCATTCTATGCA (sugars k3 d10 k3, PS) | 47 | – |
| GAATGCTACTTGAACA (sugars k3 d1 m1 d8 k3, PS) | 48 | – |
| GAATGTAAAGGCTGGG (sugars k3 d10 k3, PS) | 42 | – |
| GACAACCCTTAACAAA (sugars k3 d10 k3, PS) | 24 | – |

| Sequence | target mRNA inhibition (1 µM) [%] | also measured |
| --- | --- | --- |
| GACAACTGATGTCCAG (sugars k3 d10 k3, PS) | 12 | – |
| GACAATGGTTGATAGT (sugars k3 d10 k3, PS) | 67 | – |
| GACAGGTAATTAATCT (sugars k3 d10 k3, PS) | 60 | – |
| GACATAACTACTTCAG (sugars k3 d10 k3, PS) | 66 | – |
| GACATAGACATGTGTT (sugars k3 d10 k3, PS) | 26 | – |
| GACATGAGGTTTTGAT (sugars k3 d9 k3 e1, PS) | 55 | – |
| GACCAATATAATCCAA (sugars k3 d10 k3, PS) | 34 | – |
| GACTAATGCAAGATTT (sugars k3 d10 k3, PS) | 55 | – |
| GACTTTGAGACTCTTG (sugars k3 d10 k3, PS) | 65 | – |
| GACTTTTGTTTGTAGC (sugars k3 d10 k3, PS) | 74 | – |
| GAGATAAAGCTGCCTG (sugars kkdddddddddkekek, PS) | 40 | – |
| GAGCATAAGTTACCAG (sugars k3 d10 k3, PS) | 61 | – |
| GAGCATTCATCAGATG (sugars k3 d10 k3, PS) | 64 | – |
| GAGGTAAGGAATCCCT (sugars k3 d10 k3, PS) | 27 | – |
| GAGGTATGTCATACTT (sugars k3 d10 k3, PS) | 29 | – |
| GAGGTTTTGATACCAG (sugars k3 d10 k3, PS) | 59 | – |
| GAGTAGTGTAAGCTGA (sugars k3 d10 k3, PS) | 80 | target mRNA inhibition (0.02 µM): 12%; target mRNA inhibition (0.078 µM): 12%; target mRNA inhibition (0.313 µM): 51%; target mRNA inhibition (1.25 µM): 69%; target mRNA inhibition (5 µM): 92% |
| GAGTCGGTCACCTTTC (sugars k3 d9 k3 e1, PS) | 74 | target mRNA inhibition (0.02 µM): 0%; target mRNA inhibition (0.078 µM): 0%; target mRNA inhibition (0.313 µM): 0%; target mRNA inhibition (1.25 µM): 51%; target mRNA inhibition (5 µM): 76% |
| GAGTCGGTCACCTTTC (sugars k3 d10 k3, PS) | 82 | target mRNA inhibition (0.02 µM): 0%; target mRNA inhibition (0.078 µM): 30%; target mRNA inhibition (0.313 µM): 55%; target mRNA inhibition (1.25 µM): 82%; target mRNA inhibition (5 µM): 82% |
| GAGTGCATCTTAAGAT (sugars k3 d9 k3 e1, PS) | 34 | – |
| GAGTGCATCTTAAGAT (sugars kkdddddddddkekek, PS) | 27 | – |
